# Laboratory results as given in patent US20200078459A1, “NEAR INFRARED (NIR) PHOTODYNAMIC THERAPY (PDT) IN COMBINATION WITH CHEMOTHERAPY” (Health Research, Inc., priority 2016, published 2020).
# Read-outs that look alike come from different tables or passages of the source.
# Columns and labels:
# [1] = system: FaDu head and neck cancer xenografts; test: PDT response and antitumor activity in SCID mice bearing FaDu head and neck cancer xenografts; type: in vivo
# Protocol: First dose of irinotecan: 1 h post-PDT treatment.
# Human head and neck cancer xenografts (FaDu and H&N 85-1)
# The treatment was initiated 7-10 post transplantation.
# [2] = system: non-small cell carcinoma (NSCLC) xenografts; details: for antitumor activity of the alone drug: no PDT
# Protocol: 3) Tumor transplantation: the xenografts used for antitumor activity were transplanted subcutaneously. The treatment was initiated 7-10 days post transplantation. 4) Tumor measurement: two axes (mm) of tumor (L, longest axis; W, shortest axis) were measured with the aid of a Vernier caliper. Tumor weight (mg) was estimated as a formula tumor weight ½ (L×W2). Tumor measurements were taken after the scabbing healed post PDT and at least three times a week for post therapy and twice a week therefore. 5) Tumor regression: complete tumor regression (CR) was defined as the inability to detect tumor by palpation at the initial site of tumor appearance for more than two months post therapy. […] Partial tumor regression (PR) was defined as ≥50% reduction in initial tumor size. Normally, 5 mice per treatment group were included in these experiment groups and repeated at least twice.
# PDT of Subcutaneous Tumors—Tumor bearing mice are injected via the tail vein with HPPH or derivatives at doses that are non-toxic unless exposed to light. For tail vein injections, mice were gently restrained in approved holders and their tails were briefly (less than 1 minute) dipped in warm sterile water (˜40° C.). Photosensitizers are injected in a volume of less than 0.2 mL into the tail vein using a 27-gauge needle.
# The photosensitizers, at 24 hours (or the optimal time determined by optical imaging) after administration of HPPH or derivatives, the animals were partially restrained allowing leg movement, in specially designed holders without anesthesia.
# Tumors are exposed to visible light (1 cm diameter) at power densities of less than 100 mW/cm^2. The light sources are either a dye laser (with a tunable range of 600 to 800 nm), at the optimal excitation wavelength for the individual photosensitizer; or a pulsed laser with a range of 460 to 800 nm. The treatment will vary, depending on the light dose (J/cm^2) and fluence rate (mW/cm^2) required, but usually is for approximately 30 minutes.
# After light exposure, the mice are monitored closely for at least 1 hour and then daily until the re-growing tumors reach no more than 2 cm in the greatest dimension or for a maximum of 60 days (post treatment) at which time they are euthanized. All animals will be euthanized within 90 days of tumor implantation.
# [3] = Skin phototoxicity of the photosensitizers; type: in vivo; details: in contrast to most of the clinically approved PS
# [4] = system: skin cancer (basal cell carcinoma) early lung cancer and esophageal cancers; test: Phase I human clinical trials of HPPH; type: in vivo
# [5] = patients advised to be away from sunlight at least 6-8 weeks after the light treatment; cited from earlier work
# [6] = 5 mg/kg weekly×3 doses, in combination with HPPH or Photobac with PDT, 8/10 mice
compound,measurement,setting,value
"CCc1c2c(nc3ccc(OC(=O)N4CCC(N5CCCCC5)CC4)cc13)-c1cc3c(c(=O)n1C2)COC(=O)[C@]3(O)CC [Irinotecan, irinotecan]",CR (complete tumor regression),"[1]; 100 mg/kg weekly×4 doses, in combination with HPPH and PDT, 11/15 mice",73%
same,toxicity,"[1]; PDT ± chemotherapy, in the used doses",no significant effects
same,antitumor activity of the alone drug,"[1]; drug alone, 100 mg/kg weekly×4 doses, no PDT",not effective
same,CR (complete tumor regression),"[1]; in combination with Photobac (PDT), 3/5 mice",60%
"CCCCCCOC(C)c1c(C)c2cc3nc(c4c5[nH]c(cc6nc(cc1[nH]2)C(C)=C6CC)c(C)c5C(=O)C4)[C@@H](CCC(=O)O)[C@@H]3C (some centres unmarked) [HPPH, 3-(1′-hexyloxy)ethyl-3-devinylpyropheopphorbide-a]",CR (complete tumor regression),"[2]; PDT with HPPH, without chemotherapy",20%
same,skin photo toxicity,[3],do not produce any skin photo toxicity
same,effectiveness in treatment of cancer,[4],effective
"COc1cccc2c1C(=O)c1c(O)c3c(c(O)c1C2=O)C[C@@](O)(C(=O)CO)C[C@@H]3O[C@H]1C[C@H](N)[C@H](O)[C@H](C)O1 [Doxorubicin, doxorubicin]",CR (complete tumor regression),[2]; [6],80%
same,antitumor activity of the alone drug,[2]; 5 mg/kg weekly×3 doses,not effective
same,toxicity,"[2]; mouse, in vivo",no significant effects
"CCCCOC(C)c1c(C)c2cc3nc(c4c5[nH]c(cc6nc(cc1[nH]2)C(C)C6CC)c(C)c5C(=O)N(CCCC)C4=O)C(CCC(=O)OC)C3C (centres unmarked) [Photobac, 3-(1′-butyloxy)ethyl-3-deacetyl-bacteriopurpurin-18-N-butyl-imide methyl ester]",skin photo toxicity,[3],do not produce any skin photo toxicity
"N.N.[Cl][Pt][Cl] [Cisplatin, cisplatin]",CR (complete tumor regression),[2]; [6],80%
same,antitumor activity of the alone drug,[2]; 5 mg/kg weekly×3 doses,not effective
Photofrin,skin phototoxicity in patients,[5],severe skin phototoxicity
